In brackets after ≈: the same amount, converted by molar mass.
How the values were obtained:
[1] = Water solubility by adding water in 1 μl steps to 1 mg compound; type: physicochemical; conditions: thermodynamic from solid
Procedure: The water solubility of compounds 85-90 was determined by weighing 1 mg of the cold compound in an Eppendorf-tube and adding water in 1 μl steps. The addition was performed until everything was dissolved. The value in mg/μl was converted to […].

[2] = Distribution coefficient log D at pH 7.4; type: physicochemical; conditions: pH 7.4, n = 3
Excerpt: In general, the more negative the values of log D the better the water solubility.

PD-L1 = molecular target: T1, PD-L1 (Homo sapiens, UniProt Q9NZQ7); assay: Saturation binding assay of Cu-64 labelled radioligands on PC3 hPSCA PD-L1 overexpressing cell line; conditions: PC3 hPSCA PD-L1 cells, n = 3; for Kd: 4° C., 90 min
T1 construct: expressed in transfected cells; host or cells: PC3 hPSCA PD-L1 overexpressing cell line
Procedure: Experiments were performed on a PC3 hPSCA PD-L1 overexpressing cell line in triplicates and three experiments were performed per compound, resulting in a 3×3 data set per compound (see FIGS. 1 to 3). The saturated, upper curve represents the total binding of the compound whereas the lower, linear curve represents the unspecific binding. The specific binding is represented as the difference between total and unspecific binding.
In the following the procedure for saturation binding assay is explained: The respective Cu-64 labeled compound is prepared freshly for each experiment. The cells with PD-L1 expression were prepared in 48-well plates. Three rows in the plates were designated for determination of total binding and one row for determination of the unspecific binding. For the latter, the cells are pretreated for 15 min with a 300 fold excess of a literature known PD-L1 inhibitor with high binding to PD-L1. […] Protein determination takes place at the next day and provides the Bmax value (total density of PD-L1 receptors on cell surface). Plotting and graphical interpretation provides curves and Kd-values from graph fitting.

PD-L1 tumor [3] = assay: PET imaging in PD-L1 overexpressing mouse xenograft model; type: in vivo; conditions: 5 hrs p.i. (second image)
PD-L1 tumor [4] = assay: as above; type: in vivo
Procedure: Compound 119 was tested in a PD-L1 overexpressing mouse xenograft model. PET images were recorded 2 h, 15 h and 24 h post injection (see FIG. 4). The experiments were performed with compound 119 in duplicates (two mice for each timepoint). About 10 MBq of radiolabelled compound were injected intravenously in the tail vain of an alive mouse. At 2 hrs p.i. the first image was recorded. […] At 5 hrs p.i. the second image was recorded. High uptake in liver; high uptake in colon and intestine and increased uptake in PD-L1 tumor have been observed. At 24 hrs p.i. the third image was recorded. Moderate uptake in liver, low uptake in intestine and moderate uptake in the PD-L1 positive tumor has been observed.

T1 sequence (Q9NZQ7 19-290): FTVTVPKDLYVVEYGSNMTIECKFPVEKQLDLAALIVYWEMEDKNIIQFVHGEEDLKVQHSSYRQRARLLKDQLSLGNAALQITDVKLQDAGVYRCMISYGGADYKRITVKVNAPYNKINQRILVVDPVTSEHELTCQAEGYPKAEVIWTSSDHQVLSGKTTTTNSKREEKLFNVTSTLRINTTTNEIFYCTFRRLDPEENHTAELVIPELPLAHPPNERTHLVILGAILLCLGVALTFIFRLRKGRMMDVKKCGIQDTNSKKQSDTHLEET

Compound	solubility [1] [mg/mL]	Log D7.4 [2]	Kd (PD-L1) [µM]	Bmax (receptor density) (PD-L1)	also measured
Cc1c(COc2cc(OCc3cncc(S(C)(=O)=O)c3)c(CN(C)CC(=O)NCC(S(=O)(=O)O)S(=O)(=O)O)cc2Cl)cccc1-c1cccc(OCc2cn(CCCF)nn2)c1C [Compound 88, 2-(2-((5-Chloro-4-((3′-((1-(3-fluoropropyl)-1H-1,2,3-triazol-4-yl)methoxy)-2,2′-dimethyl-[1,1′-biphenyl]-3-yl)methoxy)-2-((5-(methylsulfonyl)pyridin-3-yl)methoxy)benzyl)(methyl)amino)acetamido)ethane-1,1-disulfonic acid]	85 (≈ 89.1 mM)				
Cc1c(COc2cc(OCc3cncc(S(C)(=O)=O)c3)c(CN(C)CC(=O)NCC(S(=O)(=O)O)S(=O)(=O)O)cc2Cl)cccc1-c1cccc(OCc2cn(CCCN3CCN(C(=O)CN4CCN(CC(=O)O)CCN(CC(=O)O)CCN(CC(=O)O)CC4)CC3)nn2)c1C [Compound 119]		−3.14 ± 0.02	0.0599 ± 0.00463	5.43 ± 0.46 pmol/mg	uptake in PD-L1 tumor (PD-L1 tumor [3]): increased; uptake in colon and intestine (PD-L1 tumor [3]): high; uptake in liver (PD-L1 tumor [3]): High; circulation in the blood pool (PD-L1 tumor [4]; 2 hrs p.i.): did still circulate in the blood pool; uptake in PD-L1 tumor (PD-L1 tumor [4]; 2 hrs p.i.): low; uptake in bladder and intestines (PD-L1 tumor [4]; 2 hrs p.i.): high; uptake in liver (PD-L1 tumor [4]; 2 hrs p.i., about 10 MBq i.v.): Moderate; uptake in intestine (PD-L1 tumor [4]; 24 hrs p.i.): low; uptake in liver (PD-L1 tumor [4]; 24 hrs p.i.): Moderate; uptake in the PD-L1 positive tumor (PD-L1 tumor [4]; 24 hrs p.i.): moderate
Cc1c(COc2cc(OCc3cncc(S(C)(=O)=O)c3)c(CN(C)CC(=O)NCC(S(=O)(=O)O)S(=O)(=O)O)cc2Cl)cccc1-c1cccc(OCc2cn(CCOCCOCCN3CCN(C(=O)CN4CCN(CC(=O)O)CCN(CC(=O)O)CCN(CC(=O)O)CC4)CC3)nn2)c1C [Compound 120]		−3.50 ± 0.01	0.0713 ± 0.0101	7.04 ± 0.42 pmol/mg	
Cc1c(COc2cc(OCc3cncc(C#N)c3)c(CN(C)CC(=O)NCC(S(=O)(=O)O)S(=O)(=O)O)cc2I)cccc1-c1cccc(OCc2cn(CCCN3CCN(C(=O)CN4CCN(CC(=O)O)CCN(CC(=O)O)CCN(CC(=O)O)CC4)CC3)nn2)c1C [Compound 123]		−2.89 ± 0.02	0.3 ± 0.0206	49.6 ± 1.27 pmol/mg	
Cc1c(COc2cc(OCc3cncc(C#N)c3)c(CN(C)CC(=O)NCC(S(=O)(=O)O)S(=O)(=O)O)cc2Cl)cccc1-c1cccc(OCc2cn(CCCN3CCN(C(=O)CN4CCN(CC(=O)O)CCN(CC(=O)O)CCN(CC(=O)O)CC4)CC3)nn2)c1C [Compound 121]		−2.99 ± 0.02	0.128 ± 0.0132	20.9 ± 2.17 pmol/mg	
Cc1c(COc2cc(OCc3cncc(S(C)(=O)=O)c3)c(CN(C)CC(=O)NCC(S(=O)(=O)O)S(=O)(=O)O)cc2Cl)cccc1-c1cccc(OCc2cn(CCCC3CCN(C(=O)CN4CCN(CC(=O)O)CCN(CC(=O)O)CCN(CC(=O)O)CC4)CC3)nn2)c1C [Compound 118]		−2.75 ± 0.04	0.123 ± 0.0117	13.5 ± 0.98 pmol/mg	
Cc1c(COc2cc(OCc3cncc(C#N)c3)c(CN(C)CC(=O)NCC(S(=O)(=O)O)S(=O)(=O)O)cc2Br)cccc1-c1cccc(OCc2cn(CCCN3CCN(C(=O)CN4CCN(CC(=O)O)CCN(CC(=O)O)CCN(CC(=O)O)CC4)CC3)nn2)c1C [Compound 122]		−3.48 ± 0.03	0.135 ± 0.00234	8.28 ± 0.13 pmol/mg	
CN(CC(=O)NCC(S(=O)(=O)O)S(=O)(=O)O)Cc1cc(Cl)c(OCc2cccc(-c3cccc(OCc4cn(CCCC5CCN(C(=O)CN6CCN(CC(=O)O)CCN(CC(=O)O)CCN(CC(=O)O)CC6)CC5)nn4)c3)c2Br)cc1OCc1cncc(S(C)(=O)=O)c1 [Compound 115]		−2.73 ± 0.04	0.585 ± 0.0396	11.7 ± 0.54 pmol/mg	
Cc1c(COc2cc(OCc3cncc(S(C)(=O)=O)c3)c(CN[C@@H](CS(=O)(=O)O)C(=O)NCCS(=O)(=O)O)cc2Cl)cccc1-c1cccc(OCc2cn(CCCN3CCN(C(=O)[C@H](CS(=O)(=O)O)NC(=O)CC[C@H](C(=O)O)N4CCN(CC(=O)O)CCN(CC(=O)O)CC4)CC3)nn2)c1C [Compound 222]		−3.80 ± 0.02			
CN(CC(=O)NCC(S(=O)(=O)O)S(=O)(=O)O)Cc1cc(Cl)c(OCc2cccc(-c3cccc(OCc4cn(CCOCCOCCN5CCN(C(=O)CN6CCN(CC(=O)O)CCN(CC(=O)O)CCN(CC(=O)O)CC6)CC5)nn4)c3)c2Br)cc1OCc1cncc(S(C)(=O)=O)c1 [Compound 117]		−3.47 ± 0.10	0.357 ± 0.0665	5.85 ± 1.14 (n = 6) pmol/mg	

Second part, led by results:

solubility [1] [mg/mL]	Compound	Log D7.4 [2]	Kd (PD-L1) [µM]	Bmax (receptor density) (PD-L1)	also measured
80 (≈ 79.7 mM)	CN(CC(=O)NCC(S(=O)(=O)O)S(=O)(=O)O)Cc1cc(Cl)c(OCc2cccc(-c3cccc(OCc4cn(CCCF)nn4)c3)c2Br)cc1OCc1cncc(S(C)(=O)=O)c1 [Compound 85, 2-(2-((4-((2-Bromo-3′-((1-(3-fluoropropyl)-1H-1,2,3-triazol-4-yl)methoxy)-[1,1′-biphenyl]-3-yl)methoxy)-5-chloro-2-((5-(methylsulfonyl)pyridin-3-yl)methoxy)benzyl)(methyl)amino)acetamido)ethane-1,1-disulfonic acid]				
110 (≈ 99.2 mM)	CN(CC(=O)NCC(S(=O)(=O)O)S(=O)(=O)O)Cc1cc(Cl)c(OCc2cccc(-c3cccc(OCc4cn([C@@H]5O[C@H](CO)[C@@H](O)[C@H](O)[C@H]5F)nn4)c3)c2Br)cc1OCc1cncc(S(C)(=O)=O)c1 [Compound 86, 2-(2-((4-((2-Bromo-3′-((1-((2R,3R,4S,5S,6R)-3-fluoro-4,5-dihydroxy-6-(hydroxymethyl)tetrahydro-2H-pyran-2-yl)-1H-1,2,3-triazol-4-yl)methoxy)-[1,1′-biphenyl]-3-yl)methoxy)-5-chloro-2-((5-(methylsulfonyl)pyridin-3-yl)methoxy)benzyl)(methyl)amino)acetamido)ethane-1,1-disulfonic acid]				
115 (≈ 104 mM)	CN(CC(=O)NCC(S(=O)(=O)O)S(=O)(=O)O)Cc1cc(Cl)c(OCc2cccc(-c3cccc(OCc4cn([C@@H]5O[C@H](CF)[C@@H](O)[C@H](O)[C@H]5O)nn4)c3)c2Br)cc1OCc1cncc(S(C)(=O)=O)c1 [Compound 87, 2-(2-((4-((2-Bromo-3′-((1-((2R,3R,4S,5S,6S)-6-(fluoromethyl)-3,4,5-trihydroxytetrahydro-2H-pyran-2-yl)-1H-1,2,3-triazol-4-yl)methoxy)-[1,1′-biphenyl]-3-yl)methoxy)-5-chloro-2-((5-(methylsulfonyl)pyridin-3-yl)methoxy)benzyl)(methyl)amino)acetamido)ethane-1,1-disulfonic acid]				
115 (≈ 109 mM)	Cc1c(COc2cc(OCc3cncc(S(C)(=O)=O)c3)c(CN(C)CC(=O)NCC(S(=O)(=O)O)S(=O)(=O)O)cc2Cl)cccc1-c1cccc(OCc2cn([C@@H]3O[C@H](CF)[C@@H](O)[C@H](O)[C@H]3O)nn2)c1C [Compound 90, 2-(2-((5-Chloro-4-((3′-((1-((2R,3R,4S,5S,6S)-6-(fluoromethyl)-3,4,5-trihydroxytetrahydro-2H-pyran-2-yl)-1H-1,2,3-triazol-4-yl)methoxy)-2,2′-dimethyl-[1,1′-biphenyl]-3-yl)methoxy)-2-((5-(methylsulfonyl)pyridin-3-yl)methoxy)benzyl)(methyl)amino)acetamido)ethane-1,1-disulfonic acid]				
120 (≈ 113 mM)	Cc1c(COc2cc(OCc3cncc(S(C)(=O)=O)c3)c(CN(C)CC(=O)NCC(S(=O)(=O)O)S(=O)(=O)O)cc2Cl)cccc1-c1cccc(OCc2cn([C@@H]3O[C@H](CO)[C@@H](O)[C@H](O)[C@H]3F)nn2)c1C [Compound 89, 2-(2-((5-Chloro-4-((3′-((1-((2R,3R,4S,5S,6R)-3-fluoro-4,5-dihydroxy-6-(hydroxymethyl)tetrahydro-2H-pyran-2-yl)-1H-1,2,3-triazol-4-yl)methoxy)-2,2′-dimethyl-[1,1′-biphenyl]-3-yl)methoxy)-2-((5-(methylsulfonyl)pyridin-3-yl)methoxy)benzyl)(methyl)amino)acetamido)ethane-1,1-disulfonic acid]				

Source: patent US20250144253A1, “3-((3-([1,1'-BIPHENYL]-3-YLMETHOXY)PHENOXY)METHYL)BENZONITRILE DERIVATIVES AND THE USE THEREOF” (HELMHOLTZ-ZENTRUM DRESDEN-ROSSENDORF E.V., priority 2021, published 2025)
